According to patent US20200283532A1, “TUMOUR-TARGETING PEPTIDE VARIANTS” (Cancer Research Technology Limited, priority 2017, published 2020):
Like-named read-outs stand apart in the source and are kept apart here.

How the values were obtained:
[1] = tested on: A375Pβ6 (αvβ6) and A375Puro (control) xenografts; experiment: Biodistribution of 111In-DTPA labelled peptides in tumour-bearing mice; assay type: in vivo, female CD1 Nu/Nu mice; details: 111In-DTPA peptide iv, mean ± SEM
Protocol: 2×10^6 cells in 100 μl were injected subcutaneously into the shoulders of female CD1 Nu/Nu mice. Tumours were grown subcutaneously on the left (A375Puro) and on the right (A375136) shoulder over two weeks. Once tumours had grown to approximately 5 mm diameter peptides were radiolabelled with Indium-111, and analysed by Radio-HPLC to determine labelling efficiency. The labelled peptides were diluted in sterile PBS/BSA and were dosed to give 0.3MBq per animal. Mice were then intravenously (tail-vein) injected with the radiolabelled peptide and are culled after 1 hour. Blood, organs and tumours were removed, weighed and residual activity was measured on a gamma counter (LKB Compugamma) the next day. Data were expressed as % Injected Dose/g tissue (% ID/g).
Immunocompromised mice (n=3-5) bearing A375Ppuro and A37546 tumours on opposite shoulders were given intravenous (iv) injections of […] of radiolabelled peptides 22-26 then killed 1 h later. Major organs and blood were collected immediately, weighed, and radioactivity determined. The data in Table 3 show the behaviour of the five DTPA-conjugated peptides tested; data are expressed as mean % injected dose/g tissue.

A375Pβ6 cells = assay type: cell-based
Protocol: Cells were trypsinised and resuspended into DMEM (serum-free media) to prepare a cell suspension of 4×10^6 cells/ml. From this point on everything was kept on ice. 50 μl of cell suspension were aliquoted into each flow tube. Peptides were diluted in ice-cold serum-free media to 200 nM giving the final concentration of 100 nM when 50 μl was added to the cell samples. The peptides were left on ice for 15 minutes then washed twice with flow media and centrifuged for 3 minutes at 1200 rpm in between each wash step. Mouse anti-biotin (50 μl at 1:200) was added to each sample for 15 minutes, then wash steps were repeated. Apart from the 0 time point, each of the time point samples were put in the incubator at 37° C. and at 15, 30 and 45 minutes the cells were fixed in 4% formaldehyde in PBS for 10 minutes, washed once in PBS and 0.1% Triton X-100 detergent added for 5 minutes, before washing in PBS again. Goat anti-mouse IgG conjugated to AlexaFLUOR 488 (1:250) was added (50 μl) to each sample and left for 15 minutes on ice in the dark. Samples were washed as above and resuspended to 30 μl. Samples were examined on an Imagestream X Mark II (Amnis, Merck) Imagestream images were assessed for internalisation compared with the 0 minute samples using on board software.
Internalisation Assay Method—Flow Cytometry
Cells were prepared as above except that no detergent was added prior to detecting the biotin with antibodies. Samples were analysed on a FACScalibur (Bekton-Dickinson) cytometer.
To assess ability to be internalized by cells at 37° C. (and thus potential vectors for therapies) we used Imagestream® cytometry and flow cytometry. Imagestream® takes a fluorescence image of each cell (FIG. 2C) enabling image analysis of the fluorescence on the surface versus the intracellular compartment. Histograms in FIG. 2C plot internalization relative to the 0 minute time point. For flow cytometry we monitored the loss of surface expression as the peptides were internalized.

[2] = target: T1, αvβ6 integrin (A375Pβ6 cells) (Homo sapiens, UniProt P06756+P18564); experiment: Level of binding of biotinylated peptides to A375Pβ6 cells by flow cytometry; details: mean of up to four experiments; for A) Affinity: mean activity relative to biotinylated A20FMDV2 (100 nM): binding to A375Pβ6 at 100 nM, flow cytometry, commercial biotinylated A20FMDV2 = 1.00
T1 construct: expressed in transfected cells; host or cells: A375Pβ6 (transduced A375P melanoma cells; control line A375Ppuro)
T1 sequence (P06756 31-889 limits assumed, stated change not applied): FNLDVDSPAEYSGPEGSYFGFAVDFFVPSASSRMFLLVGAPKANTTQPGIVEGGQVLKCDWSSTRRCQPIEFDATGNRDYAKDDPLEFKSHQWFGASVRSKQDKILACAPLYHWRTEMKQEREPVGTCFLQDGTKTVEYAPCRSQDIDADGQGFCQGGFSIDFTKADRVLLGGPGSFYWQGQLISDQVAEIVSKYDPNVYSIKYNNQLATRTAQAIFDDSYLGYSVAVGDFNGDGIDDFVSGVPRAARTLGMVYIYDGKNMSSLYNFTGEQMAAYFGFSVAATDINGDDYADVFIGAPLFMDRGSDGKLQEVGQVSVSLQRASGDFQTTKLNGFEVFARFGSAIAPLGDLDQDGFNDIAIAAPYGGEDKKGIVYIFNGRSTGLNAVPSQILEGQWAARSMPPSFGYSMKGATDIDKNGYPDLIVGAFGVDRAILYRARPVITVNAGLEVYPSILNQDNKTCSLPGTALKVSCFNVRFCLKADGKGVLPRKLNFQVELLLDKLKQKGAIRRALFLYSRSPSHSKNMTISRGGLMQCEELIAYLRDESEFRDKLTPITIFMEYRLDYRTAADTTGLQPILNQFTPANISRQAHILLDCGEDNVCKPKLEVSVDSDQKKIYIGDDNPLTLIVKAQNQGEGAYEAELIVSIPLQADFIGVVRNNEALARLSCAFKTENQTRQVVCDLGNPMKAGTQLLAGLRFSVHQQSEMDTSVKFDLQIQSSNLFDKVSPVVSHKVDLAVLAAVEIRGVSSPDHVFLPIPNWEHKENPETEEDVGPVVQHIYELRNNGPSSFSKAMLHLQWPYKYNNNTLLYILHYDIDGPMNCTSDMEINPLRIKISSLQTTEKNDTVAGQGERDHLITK
T1 sequence (P06756 891-1048 limits assumed, stated change not applied): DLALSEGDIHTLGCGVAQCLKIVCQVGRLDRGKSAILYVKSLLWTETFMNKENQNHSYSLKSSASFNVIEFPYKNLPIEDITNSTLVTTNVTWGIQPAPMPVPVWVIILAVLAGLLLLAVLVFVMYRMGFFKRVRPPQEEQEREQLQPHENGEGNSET
T1 sequence (P18564 22-788, stated change not applied): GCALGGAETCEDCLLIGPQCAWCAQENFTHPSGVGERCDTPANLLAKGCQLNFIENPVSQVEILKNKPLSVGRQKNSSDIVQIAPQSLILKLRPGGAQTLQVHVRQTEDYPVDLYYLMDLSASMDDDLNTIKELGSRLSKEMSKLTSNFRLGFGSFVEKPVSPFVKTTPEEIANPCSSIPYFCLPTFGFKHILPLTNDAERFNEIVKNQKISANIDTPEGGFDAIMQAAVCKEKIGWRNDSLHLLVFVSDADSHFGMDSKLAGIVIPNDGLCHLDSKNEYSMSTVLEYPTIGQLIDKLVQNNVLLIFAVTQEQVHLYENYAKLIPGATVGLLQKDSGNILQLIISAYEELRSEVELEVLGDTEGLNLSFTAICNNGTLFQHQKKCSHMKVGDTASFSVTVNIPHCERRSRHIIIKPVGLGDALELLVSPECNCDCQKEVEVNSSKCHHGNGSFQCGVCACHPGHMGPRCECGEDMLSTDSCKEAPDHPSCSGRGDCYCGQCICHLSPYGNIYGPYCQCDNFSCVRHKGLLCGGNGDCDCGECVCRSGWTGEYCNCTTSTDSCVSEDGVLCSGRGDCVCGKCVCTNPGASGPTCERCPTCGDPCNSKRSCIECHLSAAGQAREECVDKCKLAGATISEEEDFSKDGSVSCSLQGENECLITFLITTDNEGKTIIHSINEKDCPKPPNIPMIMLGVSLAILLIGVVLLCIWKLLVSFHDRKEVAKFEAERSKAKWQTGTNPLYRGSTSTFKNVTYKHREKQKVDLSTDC

Substance	A) Affinity: mean activity relative to biotinylated A20FMDV2 (100 nM) [2]	B) Internalisation: mean % internalisation at 45 min relative to biotinylated A20FMDV2 (100 nM) (A375Pβ6 cells)	Relative Activity (A × B) (A375Pβ6 cells)	further results
DTPA-GNK(Biotin)VPNLRGDLQVLAQKVART-OH [Peptide 23]	1.28 ± 0.23			Bio-distribution, Blood ([1]; 1 h): 0.5 ± 0.16 % ID/g; Bio-distribution, Heart ([1]; 1 h): 0.6 ± 0.16 % ID/g; Bio-distribution, Intestines ([1]; 1 h): 3.8 ± 0.98 % ID/g; Bio-distribution, Liver ([1]; 1 h): 0.4 ± 0.06 % ID/g; Bio-distribution, Lung ([1]; 1 h): 4.4 ± 0.72 % ID/g; Bio-distribution, Muscle ([1]; 1 h): 0.8 ± 0.07 % ID/g; Bio-distribution, Pancreas ([1]; 1 h): 0.5 ± 0.13 % ID/g; Bio-distribution, Spleen ([1]; 1 h): 0.2 ± 0.07 % ID/g; Bio-distribution, Stomach ([1]; 1 h): 6.4 ± 2.33 % ID/g; Bio-distribution, Tail ([1]; 1 h): 4.3 ± 2.85 % ID/g; Bio-distribution, Tumour (Control) ([1]; A375Puro xenograft, mice culled after 1 h): 0.5 ± 0.15 % ID/g; Bio-distribution, Tumour (αvβ6) ([1]; A375Pβ6 xenograft, mice culled after 1 h): 3.7 ± 0.29 % ID/g; Relative Activity (A × B) (A375Pβ6 cells; binding affinity value multiplied by amount internalized, commercial biotinylated A20FMDV2 = 1.00): 1.24; B) Internalisation: mean % internalisation at 45 min relative to biotinylated A20FMDV2 (100 nM) (A375Pβ6 cells; flow cytometry, 100 nM, 45 min at 37° C., commercial biotinylated A20FMDV2 = 1.00): 0.97 ± 0.11
H2N-NK (Biotin) VPNLRGDLQV[norvaline]AQKVART-OH [Peptide 8]	0.77 ± 0.52	1.09 ± 0.17	0.84	
H2N-NK(Biotin)VPNLRGDLQV[cyclohexylalanine]AQKVART-OH [Peptide 14]	0.62 ± 0.06	1.01 ± 0.32	0.62	
H2N-NK(Biotin)VPNLRGDLQVLAQ-N-MeKVART-OH [Peptide 6]	0.37 ± 0.12	0.89 ± 0.32	0.32	
H2N-NK(Biotin)VPNLRGDLQVLAQkVART-OH [Peptide 2]	1.11 ± 0.15	0.78 ± 0.15	0.87	
H2N-NK(Biotin)VPNLRGDLQVLAQ[ornithine]VART-OH [Peptide 3]	1.12 ± 0.16	0.86 ± 0.29	0.96	
H2N-NK (Biotin) VPNLRGDLQV[tert-butyl-alanine]AQKVART-OH [Peptide 11]	0.60 ± 0.23	1.03 ± 0.14	0.62	
AcHN-NK(Biotin)VPNLRGDLQVLAQKVART-NH2 [Peptide 18]	1.25 ± 0.26	0.87 ± 0.12	1.09	Relative Activity value higher than the control peptide (A375Pβ6 cells): 9%
H2N-NK(Biotin)VPNLRGDLQVLAQKVART-OH [Peptide 1]	1.11 ± 0.15	0.84 ± 0.14	0.93	
H2N-NK(Biotin)VPNLRGDLQV[allylglycine]AQKVART-OH [Peptide 10]	0.58 ± 0.25	0.82 ± 0.25	0.48	
H2N-NK(Biotin)VPNLRGDLQVLAQKVART-NH2 [Peptide 17]		1.07 ± 0.40	1.31	Relative Activity value higher than the control peptide (A375Pβ6 cells): 31%
H2N-NK(Biotin)VPNLRGDLQVLAQ[diaminopropionic acid]VART-OH [Peptide 5]	0.79 ± 0.14	0.96 ± 0.31	0.76	
H2N-NK(Biotin)VPNLRGDLQV[2-amino-3-ethylpentanoic acid]AQKVART-OH [Peptide 13]	0.70 ± 0.33	0.52 ± 0.23	0.37	
H2N-NK(Biotin)VPNLRGDLQVLAQKVARt-OH [Peptide 20]	0.53 ± 0.44	0.99 ± 0.25	0.53	
N-NK(Biotin)VPNLRGDLQVLAQ[diaminobutyric acid]VART-OH [Peptide 4]	1.00 ± 0.07	0.86 ± 0.29	0.86	
H2N-NK(Biotin)VPNLRGDLQV[aminoisobutyric acid]AQKVART-OH [Peptide 7]	1.07 ± 0.37	1.11 ± 0.3	1.19	
H2N-NK(Biotin)VPNLRGDLQV[adamantylglycine]AQKVART-OH [Peptide 15]	0.51 ± 0.28	1.07 ± 0.18	0.55	
H2N-NK(Biotin)VPNLRGDLQV[norleucine]AQKVART-OH [Peptide 9]	1.16 ± 0.29	1.15 ± 0.04	1.33	
H2N-nK(Biotin)VPNLRGDLQVLAQKVART-OH [Peptide 19]		0.89 ± 0.12		Relative Activity value higher than the control peptide (A375Pβ6 cells): 27%; Average binding activity higher than the parent (commercially obtained biotinylated-A20FMDV2) ([2]; A375Pβ6, 100 nM): 43%
H2N-nK(Biotin)VPNLRGDLQVLAQKVARt-OH [Peptide 21]		0.87 ± 0.27		Relative Activity value higher than the control peptide (A375Pβ6 cells): 37%
AcHN-NK(Biotin)VPNLRGDLQVLAQKVART-OH [Peptide 16]		1.05 ± 0.24	1.55	Relative Activity value higher than the control peptide (A375Pβ6 cells): 55%
H2N-NK(Biotin)VPNLRGDLQV[homoleucine]AQKVART-OH [Peptide 12]	0.45 ± 0.22	0.66 ± 0.14	0.27	
